Laboratory results taken from PMC11013284, “Chemoselective Synthesis and Anti-Kinetoplastidal Properties of 2,6-Diaryl-4H-tetrahydro-thiopyran-4-one S-Oxides: Their Interplay in a Cascade of Redox Reactions from Diarylideneacetones” (Molecules, 2024).
Like-named read-outs stand apart in the source and are kept apart here.

Legend:
[1] = tested on: WT LV9 L. donovani intramacrophage amastigotes; assay: L. donovani intramacrophage amastigote assay; type: cell-based, Leishmania donovani; conditions: for IC99 ± SD LV9 intramacrophage amastigotes / IC90: Table S6; for IC90: read-out: IC90 ± SD LV9 intramacrophage amastigotes
[2] = tested on: Trypanosoma cruzi (Tulahuen CL2 β-galactosidase) amastigotes in hMRC-5SV2 cells; assay: T. cruzi intracellular amastigote assay (β-galactosidase/CPRG); type: cell-based; conditions: intracellular amastigotes, 7 days, read-out: IC50 T. cruzi intramacrophage amastigotes (converted)
Method: A nifurtimox-sensitive strain (Tulahuen CL2 β-galactosidase) in human lung fibroblast hMRC-5SV2 cells was incubated for 7 days in 96-well plates with five concentrations of compound (64, 16, 4, 1, and 0.25 μM). The parasitic burden was evaluated through the activity of the enzyme β-galactosidase on a specific chlorophenol red ß-D-galactopyranoside (CPRG) substrate. Live parasites converted the yellow-orange CPRG substrate into the red chromophore chlorophenol red, yielding a dark-red solution, which could be quantitatively measured at 540 nm after 4 h of incubation at 37 °C. The results were expressed as a percentage reduction in parasite growth/viability compared to control wells, and an IC50 was calculated.

[3] = tested on: L. infantum (MHOM/MA(BE)/67) amastigotes in primary peritoneal mouse macrophages; assay: L. infantum intramacrophage amastigote assay (microscopic burden); type: cell-based, Leishmania infantum; conditions: 5 days, mouse macrophages as host
Method: L. infantum (MHOM/MA(BE)/67 strain) amastigote were incubated for 5 days in 96-well plates with five concentrations of compound (64, 16, 4, 1, and 0.25 μM). Primary peritoneal mouse macrophages were used as host cells. Parasite burdens (i.e., the number of amastigotes per macrophage) were microscopically assessed. The results were expressed as a percentage reduction in parasite burden compared to untreated control wells, and an IC50 was calculated.

[4] = tested on: human diploid embryonic lung fibroblast hMRC-5SV2 cells; assay: in vitro
Method: (§1) The cytotoxicity of compounds was evaluated toward human diploid embryonic lung fibroblast hMRC-5SV2 cells, derived from fetal lung tissue and first described in 1970. hMRC-5SV2 cells were cultured in 96-well plates with five concentrations of the compound (64, 16, 4, 1, and 0.25 μM). After 3 days of incubation, the cell viability was assessed fluorimetrically after the addition of resazurin, and fluorescence was measured (λex = 550 nm, λem = 590 nm). The results were expressed as a percentage reduction in cell growth/viability compared to control wells, and a 50% cytotoxic concentration (CC50) was calculated. The reference cytotoxic drugs were tamoxifen or ivermectin. Additionally, toxicity toward mouse macrophages was qualitatively observed. Three concentrations were included (64, 16, and 4 µM), and the range of toxicity was ranked from the least toxic to the most toxic compound.

[5] = tested on: Trypanosoma brucei brucei trypomastigotes, suramin-sensitive strain (Squib 427); assay: T. b. brucei growth/viability assay (resazurin); type: cell-based; conditions: 3 days
Method: After 3 days, parasite growth was assessed fluorimetrically following the addition of resazurin. After 24 h at 37 °C, fluorescence was measured (λex = 550 nm, λem = 590 nm). The results were expressed as a percentage reduction in parasite growth/viability compared to control wells, and a 50% inhibitory concentration (IC50) was calculated.

[6] = tested on: L. donovani LV9 axenic amastigotes; assay: L. donovani axenic amastigote assay (SYBR green I); type: cell-based, Leishmania donovani; conditions: for IC50: read-out: IC50 ± SD L. donovani axenic amastigotes; for IC99 ± SD LV9 axenic amastigotes / IC90: Table S6; for IC90: read-out: IC90 ± SD LV9 axenic amastigotes
Method: L. donovani amastigote forms were suspended to yield 10^7 cells/mL. The final compound concentrations used were 100 µM, 10 µM, 1 µM, 500 nM, and 50 nM. Duplicates were used for each concentration. Cultures were incubated at 37 °C for 72 h in the dark and under a 5% CO2 atmosphere; then, the viability of the amastigotes was assessed using the SYBR® green I (Invitrogen, France) incorporation method. Parasite growth was determined by using SYBR® Green I, a dye with marked fluorescence enhancement upon contact with parasite DNA. Parasites were lysed following Direct PCReCell Genotyping without DNA isolation protocol (Euromedex, Souffelweyersheim, France). A total of […] of SYBR Green I was added to each well, and the contents were mixed. Fluorescence was measured with Mastercylcer® ep realplex (Eppendorf, Montesson, France). The fluorescence obtained was compared to those from the range obtained with different parasite densities.

[7] = tested on: WT LV9 L. donovani promastigotes; assay: L. donovani promastigote assay (MTT), wild type; type: cell-based; conditions: Leishmania donovani, 72 h, 3 days; read-out: IC50 ± SD WT LV9 L. donovani promastigotes
Method: (§2) L. donovani promastigote forms from the logarithmic phase culture were suspended to yield 10^6 cells/mL. Miltefosine was used as the antileishmanial reference compound. Compounds to be evaluated and miltefosine were distributed in the plates by making a serial dilution. The final concentrations used were between 100 µM and 50 nM. Triplicates were used for each concentration. After a 3-day incubation period at 27 °C in the dark and under a 5% CO2 atmosphere, the viability of the promastigotes was assessed using the tetrazolium-dye (MTT) colorimetric method, which measures the reduction of a tetrazolium component (MTT) into an insoluble formazan product by the mitochondria of viable cells. After the incubation of the cells with the MTT reagent, a detergent solution (Triton X100, HCl) was added to lyse the cells and dissolve the colored crystals. The absorbance at 570 nm, directly proportional to the number of viable cells, was measured using an ELISA plate reader. The results were expressed as the concentrations inhibiting parasite growth by 50% (IC50) ± SD after a 3-day incubation period.

[8] = tested on: HePC-R L. donovani promastigotes; assay: L. donovani promastigote assay, miltefosine-resistant strain; type: cell-based; conditions: Leishmania donovani, read-out: IC50 ± SD HePC-R L. donovani promastigotes
Method: as §2

murine macrophages = assay: Qualitative toxicity toward mouse macrophages; conditions: concentration at which toxicity was observed; 64, 16 and 4 µM tested
Method: as §1

in vitro = conditions: human, CC50 hMRC-5 (cytotoxicity)
Method: as §1

[9] = Solubility observations (crystals in assay, insolubility in solvents); type: physicochemical; conditions: for solubility (observation): almost all types of solvent, even at very low concentrations
[10] = tested on: Trypanosoma brucei brucei trypomastigotes, suramin-sensitive strain (Squib 427); parameters: method as in earlier work; conditions: Table 1, preliminary study; read-out: IC50 T. b. brucei; cited from earlier work
[11] = tested on: Trypanosoma cruzi (Tulahuen CL2 β-galactosidase) amastigotes in hMRC-5SV2 cells; parameters: method as in earlier work; conditions: Table 1, preliminary study; read-out: IC50 T. cruzi; cited from earlier work
[12] = tested on: L. infantum (MHOM/MA(BE)/67) amastigotes in primary peritoneal mouse macrophages; parameters: method as in earlier work; conditions: Table 1, preliminary study; cited from earlier work
[13] = Leishmania donovani, WT LV9, ± SD in Tables S5/S6, read-out: IC50 L. donovani intramacrophage amastigotes
[14] = Trypanosoma cruzi, TULAHUEN, 168 h
[15] = Leishmania infantum, Macrophage, 120 h
[16] = noted in L. donovani assay, Table S5

Compound | observed macrophage death / lysis observed at (macrophages) [µM] | IC50 [1, 13] [µM] | IC50 [2, 14] [µM] | IC50 [3, 15] [µM] | Toxicity (T) observed toward murine macrophages (murine macrophages) | CC50 at 3 days (in vitro) [µM] | IC50 ([5]; Trypanosoma brucei, 72 h) [µM] | further results
CN(C)c1ccc([C@H]2CC(=O)C[C@H](c3ccc(N(C)C)cc3)S2)cc1 (racemic) [2u] | – | – | – | – | – | – | – | observed macrophage death / lysis observed at (macrophages; bracketed value after the intramacrophage IC50 (Table S5), Table S6): 100 µM; IC99 ± SD LV9 intramacrophage amastigotes [1]: 7.1 ± 15.9 µM; IC90 [1]: 5.6 ± 12.5 µM; IC50 ([1]; WT LV9, ± SD in Tables S5/S6, read-out: IC50 L. donovani intramacrophage amastigotes): 4.5 ± 10 µM; IC50 [2]: 2.5 µM; IC50 [3]: 43.1 µM; CC50 [4]: 5 µM; IC50 [5]: 1.5 µM; IC50 ([6]; LV9): 57.5 ± 10.2 µM; IC99 ± SD LV9 axenic amastigotes [6]: 91.1 ± 16.2 µM; IC90 [6]: 71.7 ± 12.7 µM
O=C(/C=C/c1ccccc1Cl)/C=C/c1ccccc1Cl [1e] | > 37.5 | 7.4 ± 1.7 | 12 | 6.8 | T2 (T2 = 16) | 29.4 | 7.8 | IC50 [7]: 3.6 ± 0.1 µM; IC50 [8]: 7.8 ± 1 µM; IC50 ([6]; Leishmania donovani, LV9): > 200 µM
O=C(/C=C/c1ccc(Cl)cc1)/C=C/c1ccc(Cl)cc1 [1f] | > 50 | 6.3 ± 1.9 | 35.6 | > 60 | – | 42.4 | 2.1 | IC50 [7]: 6.7 ± 0.6 µM; IC50 [8]: 3.7 ± 0.2 µM; presence of crystals (asterisk mark) [9, 16]: * (presence of crystals at > 50 µM); IC50 ([6]; Leishmania donovani, LV9): > 200 µM
O=C(/C=C/c1c(Cl)cccc1Cl)/C=C/c1c(Cl)cccc1Cl [1h] | > 6.2 | – | 39.5 | 32.5 | T1 (T1 = 64) | > 64 | > 64 | presence of crystals, concentration range [9, 16]: 0.8 to 200 µM
C=CCOc1ccc(OC)cc1/C=C/C(=O)/C=C/c1cc(OC)ccc1OCC=C [1n] | – | – | 24.2 | > 64 | – | > 16 | 26.6 | melting point: 83 °C
COc1cc(Br)c(O)c(/C=C/C(=O)/C=C/c2cc(OC)cc(Br)c2O)c1 [1p] | – | – | ≤ 0.3 | 1 | T1 (T1 = 64) | 1 | ≤ 0.3 | IC50 [10]: ≤ 0.3 µM; IC50 [11]: ≤ 0.3 µM
O=C(/C=C/c1ccc(C(F)(F)F)cc1)/C=C/c1ccc(C(F)(F)F)cc1 [1r] | – | – | 1.6 | > 64 | – | 26.2 | 0.2 | IC50 [12]: > 64 µM
O=C(/C=C/c1ccc(OC(F)(F)F)cc1)/C=C/c1ccc(OC(F)(F)F)cc1 [1s] | – | – | 1.8 | > 64 | – | 32.8 | 0.5 | IC50 [12]: > 64 µM
N#Cc1ccc(/C=C/C(=O)/C=C/c2ccc(C#N)cc2)cc1 [1t] | > 100 | > 50 | 11.9 | 5.1 | T2 (T2 = 16) | 57.1 | 1.5 | IC50 [7]: 6.6 ± 0.6 µM; IC50 [8]: 2.4 ± 0.1 µM; IC50 ± SD L. donovani axenic amastigotes ([6]; LV9): T at 6.25-200 µM
CN(C)c1ccc(/C=C/C(=O)/C=C/c2ccc(N(C)C)cc2)cc1 [1u] | 200 | 6.3 ± 0.8 | 36.9 | > 64 | – | 62.3 | 0.8 | IC90 ([1]; Leishmania donovani): 7.8 ± 1 µM; IC99 ± SD LV9 intramacrophage amastigotes [1]: 9.9 ± 1.3 µM; IC50 ([6]; Leishmania donovani, LV9): 8.7 ± 0.6 µM; IC90 ([6]; Leishmania donovani): 64.2 ± 0.7 µM; IC99 ± SD LV9 axenic amastigotes [6]: 567.3 ± 0.9 µM
Cl.Cl.O=C(/C=C/c1cccnc1)/C=C/c1cccnc1 [1x] | – | – | 0.9 | 1 | T1 (T1 = 64) | 1.1 | ≤ 0.3 | IC50 [10]: ≤ 0.3 µM
Cl.Cl.O=C(/C=C/c1ccncc1)/C=C/c1ccncc1 [1y] | – | – | ≤ 0.3 | 1 | T3 (T3 = 4) | 1.1 | ≤ 0.3 | IC50 [10]: ≤ 0.3 µM; IC50 [11]: ≤ 0.3 µM
COc1ccc(C2CC(=O)CC(c3ccc(OC)cc3)S2(=O)=O)cc1 (stereo not drawn) [4′d, cis-2,6-Di-(p-anisyl)-4H-tetrahydrothiopyran-4-one 1,1-dioxide] | – | – | – | – | T1 (T1 = 64) | – | – | IC50 [2]: 34.4 µM; IC50 [3]: 20.3 µM; solubility (observation) [9]: insolubility; solubility (observation) ([9]; listed as 4’d): Solubility issues; CC50 ([4]; human, 3 days): ≥ 64 µM; IC50 [5]: 2.1 µM
C[C@@H]1[C@H](O)[C@@H](C)/C=C/C=C/C=C/C=C/C=C/C=C/C=C/[C@H](O[C@@H]2O[C@H](C)[C@@H](O)[C@H](N)[C@@H]2O)C[C@@H]2O[C@](O)(C[C@@H](O)C[C@@H](O)[C@H](O)CC[C@@H](O)C[C@@H](O)CC(=O)O[C@H]1C)C[C@H](O)[C@H]2C(=O)O [Amphotericin B, reference compound] | – | 0.04 | – | – | – | > 64 | – | IC50 [7]: 0.04 ± 0.01 µM; IC50 ([1]; Leishmania donovani, as worded in footnote a of Table S5, value stands in a middle column of the table, read-out: IC50 against leishmanial WT and HePC-R intramacrophagic amastigotes): 0.08 ± 0.024 µM; IC90 ([1]; Leishmania donovani): 0.05 µM; IC99 ± SD LV9 intramacrophage amastigotes [1]: 0.07 µM; IC50 ([6]; Leishmania donovani, LV9): 0.024 µM; IC90 ([6]; Leishmania donovani): 0.03 µM; IC99 ± SD LV9 axenic amastigotes [6]: 0.039 µM
